# In patent US4861876A, “Hematoporphyrin derivative and method of preparation and purification” (priority 1986, dated 1989):
# What was measured:
# Lewis lung tumor = assay: In vivo accumulation in Lewis lung tumor (extraction, fluorescence); details: for accumulation of fluorescent components at tumor loci (in words) / Uptake in vivo: 5 mg/kg i.p., 48 hours after injection; for Uptake in vivo: average + SD of three determinations; for fluorescence emission of tumor extracts (in words): excitation 400 nm, FIG. IV
# Procedure: In vivo biological studies were conducted using DHE, CHE, HPD, hematoporphyrin, mesochlorin and bonellin. The Lewis lung tumor was maintained in female C57BL/6 mice by S.C. implant. Seven days after implantation, a respective compound was administered to test mice by i.p. injection at a dosage level of 5 mg/kg. Forty-eight hours after injection, each tumor was excised, weighed and homogenized in 50 mM 4-(2-hydroxyethyl)-1-piperazineethanesulfonic acid buffer (pH7) containing 10 mM cetyltrimethyl ammonium bromide (1 m./100 mg tissue). The resulting homogenates were shaken with 2.5 volumes of methanol: chloroform (1:1) and the phases separated by centrifugation. Under these conditions, fluorescence is quantitatively extracted into the chloroform-rich phase. These extracts were used for determination of fluorescence emission spectra (excitation wave length, 400 nm). […] For analytical studies, the extracts were evaporated and the residue hydrolyzed in 0.5 M HCl at 37° C. for 18 hours.
# L1210 cells = assay: In vitro uptake by L1210 tumor cells; format: cell-based, mouse; details: 24 hours, 10 μg/ml; for Uptake in vitro: average + SD of three determinations
# Procedure: Uptake of DHE or CHE, purified by gel-exclusion chromatography, was measured by extraction of cells after 24 hour incubations in vitro. Cell pellets (20-30 mg) were suspended in 800 μL of phosphate buffer (pH 3.5) and shaken for 3 minutes with 2 ml of a 1:1 mixture of methanol: chloroform. The lower phase was collected by centrifugation and used for measurement of absorbance at 400 nm.
# In vitro uptake of DHE, CHE and HPD, hematoporphyrin, mesochlorin and bonellin by tumor cells was studied using L1210 cells incubated for 24 hours with 10 μg/ml concentrations of each respective compound. The cells were then washed for 30 minutes in fresh medium at 37° C. and drug concentrations were determined.
# [1] = system: L1210 mouse/leukemia cells; assay: Photodynamic effects on cell viability as a function of irradiation wavelength (soft-agar clonogenic assay); format: cell-based; details: for Action spectrum: cell viability after irradiation at 620 nm (mean + SD of control percentage) / Action spectrum: cell viability after irradiation at 630 nm (mean + SD of control percentage) / Action spectrum: cell viability after irradiation at 640 nm (mean + SD of control percentage) / Action spectrum: cell viability after irradiation at 650 nm (mean + SD of control percentage): 24 h incubation, 5 g/ml (so in the source), 2000 J/m^2, five minutes; for optimal phototoxic light wave length: cells loaded for 24 hours
# Procedure: In order to determine the photosensitization capacity of DHE and CHE, respectively, comparison in vitro tests were prepared using L1210 mouse/leukemia cells grown in culture using Fischer's medium plus 10 percent horse serum. Cell suspensions (7 mg/ml wet weight) were incubated for 24 hours in growth medium containing the 5 µg/ml of the respective photosensitizer. The cell suspensions were, then, washed for 30 minutes at 37° C. in fresh medium to remove readily diffusible porphyrine.
# Irradiation was carried out for five minutes (fluence =2000 J/m^2) using a 100 w tungsten-halogen lamp with a wave length selected via narrow bandpass interference filters (=10 nm). Photodynamic effects on cell viability, as a function of irradiation wavelength, were measured by a soft-agar clonogenic assay in the manner described in Kessel, "Determinants of Hematoporphyrincatalyzed Photosensitization" 36 Photochemical Photobiology pp. 99-101 (1982) which is incorporated herein by reference. Light filters were purchased from the Oriel Corp. of Stanford, CT, and the light flux was measured with a thermopile obtained from the same source.
# [2] = Storage stability of aqueous solutions of CHE; format: physicochemical
# Procedure: The storage stability of aqueous solutions of CHE (ph 7.5) is determined at -20° C. and at 4° C. respectively.
Molecule,accumulation of fluorescent components at tumor loci (in words) (Lewis lung tumor),Uptake in vivo (Lewis lung tumor),Uptake in vitro (L1210 cells),fluorescence emission of tumor extracts (in words) (Lewis lung tumor),in vitro accumulation compared between drugs (in words) (L1210 cells),Action spectrum: cell viability after irradiation at 620 nm (mean + SD of control percentage) [1],Action spectrum: cell viability after irradiation at 630 nm (mean + SD of control percentage) [1],Action spectrum: cell viability after irradiation at 640 nm (mean + SD of control percentage) [1],Action spectrum: cell viability after irradiation at 650 nm (mean + SD of control percentage) [1],optimal phototoxic light wave length [1],"storage stability of aqueous solution at 4° C. ([2]; pH 7.5, 4° C.)","storage stability of aqueous solution at -20° C. ([2]; pH 7.5, -20° C.)","lethality relative to DHE ([1]; constant flux of 2000 J/M^2, CHE vs DHE)"
"CC1=C(CCC(=O)O)c2cc3nc(cc4[nH]c(cc4C)cc4[nH]c(cc1n2)cc4C)C(C)(C)C3CCC(=O)O (centres unmarked) [Bonellin, bonellin]",no detectible concentration of fluorescent products at tumor loci,< 0.01,0.06 µg/100 mg cells,,,,,,,,,,
Dihematoporphyrin ester [DHE],accumulation of fluorescent components at tumor loci,2.1,0.49,fluorescence at 627 nm only,almost identical,68 + 4 control percentage,45 + 2 control percentage,85 + 5 control percentage,96 + 3 control percentage,630 nm,,,
"CCC1=C(C)c2cc3[nH]c(cc4nc(cc5[nH]c(cc1n2)c(C)c5CCC(=O)OC(C)C1=C(C)c2cc5[nH]c(cc6nc(cc7[nH]c(cc1n2)c(C)c7CCC(=O)O)C(CCC(=O)O)=C6C)c(C)c5C(C)O)C(CCC(=O)O)C4C)c(C)c3CC (centres unmarked) [CHE, chlorin-hematoporphyrin ester]",,,,greater tumor fluorescence emission at 647 nm than at 627 nm,almost identical,96 + 5 control percentage,87 + 5 control percentage,10 + 2 control percentage,65 + 2 control percentage,640 nm,gradual hydrolysis of the ester-linkage,remained stable,5 fold
